Measured values taken from US20190201414A1, “INHIBITOR OF HEME DEGRADATION FOR USE TO IMPROVE ANTIBIOTIC TREATMENT OF MYCOBACTERIUM TUBERCULOSIS INFECTION” (The United States of America, as represented by the …, priority 2016, published 2019).
≈ marks a conversion by molar mass, not a printed value. Entries after “also recorded” stand apart in the source; their conditions may differ. Read-outs that look alike come from different tables or passages of the source.

How the values were obtained:
[1] = system: Mtb-infected bone marrow derived macrophages (BMDM); assay: bacterial load in Mtb-infected bone marrow derived macrophages; assay type: cell-based; conditions: for reduction in the number of bacilli: iron chelating agent added to SnPPIX; for intracellular bacterial burden: iron chelating agent alone; for effect on SnPPIX-induced reduction in bacillary load: incubated in conjunction with SnPPIX; for number of bacteria: iron donor added alone
[2] = system: M. tuberculosis strain H37Rv; assay: micro-dilution broth MIC99 assay in GAST media; assay type: cell-based; conditions: for MIC99: read-out: day 28 MIC99; for inhibition of bacterial growth: 28-day period
[3] = system: GFP-expressing M. tuberculosis/pMSP12; assay: microbe, parasite or virus in culture; assay type: cell-based; conditions: for MIC: read-out: day 21 MIC95
M. tuberculosis MhuD = target: T1, M. tuberculosis MhuD (Mycobacterium tuberculosis, UniProt P9WKH3); assay: MhuD heme/SnPPIX degradation assay by UV/vis spectroscopy; assay type: biochemical
T1 construct: His6 (C); made in house; host or cells: Escherichia coli BL21-Gold (DE3)

[4] = newborns, clinical use; cited from earlier work
[5] = system: M. tuberculosis strain H37Rv; assay type: in vivo, mice
heme oxygenase = conditions: comparison SnPPIX vs ZnPPIX; cited from earlier work
[6] = target: T2, recombinant human HO-1-G139A (hHO-1) (Homo sapiens, UniProt P09601, G139A); assay: heme degradation by recombinant human HO-1-G139A, UV/vis spectroscopy; assay type: biochemical; conditions: 2 μM SnPPIX, 1 hour
T2 construct: made in house
T2 sequence (P09601 1-288 G139A): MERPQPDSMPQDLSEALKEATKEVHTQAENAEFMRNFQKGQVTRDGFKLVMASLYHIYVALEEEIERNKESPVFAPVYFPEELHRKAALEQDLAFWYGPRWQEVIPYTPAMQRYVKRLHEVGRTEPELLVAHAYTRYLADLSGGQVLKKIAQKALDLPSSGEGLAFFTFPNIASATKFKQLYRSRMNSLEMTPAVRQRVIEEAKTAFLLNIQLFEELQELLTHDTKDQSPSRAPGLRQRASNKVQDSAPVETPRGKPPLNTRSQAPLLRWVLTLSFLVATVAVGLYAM

[7] = comparison ZnPPIX vs SnPPIX; cited from earlier work

T1 sequence (P9WKH3 whole entry): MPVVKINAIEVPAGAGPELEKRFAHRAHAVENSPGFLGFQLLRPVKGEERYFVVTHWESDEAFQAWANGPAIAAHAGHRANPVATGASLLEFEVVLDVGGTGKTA

c1ccc(-c2ccccn2)nc1 [DP, 2′2′dipyridyl]
reduction in the number of bacilli [1]: further enhancement in the reduction | intracellular bacterial burden [1]: significant reduction

[Cl][Fe]([Cl])[Cl] [FeCl3]
effect on SnPPIX-induced reduction in bacillary load [1]: completely inhibited the reduction in bacillary load | number of bacteria [1]: did not significantly enhance the number of bacteria

O=S(=O)([O-])[O-].[Fe+2] [FeSO4]
effect on SnPPIX-induced reduction in bacillary load [1]: completely inhibited the reduction in bacillary load | number of bacteria [1]: did not significantly enhance the number of bacteria

NNC(=O)c1ccncc1 [Isoniazid, reference compound]
MIC99 ([2]; Mycobacterium tuberculosis, H37RV, 672 h, GAST + 10 μM Hemin): 0.1 µM | MIC99 ([2]; Mycobacterium tuberculosis, H37RV, 672 h, GAST medium): 0.1 µM (≈ 0.0137 µg/mL) | MIC99 ([2]; Mycobacterium tuberculosis, H37RV, 672 h, GASTFe medium): 0.2 µM (≈ 0.0274 µg/mL)

Cc1ncc(CO)c(C=NNC(=O)c2ccncc2)c1O [PIH, pyridoxal isonicotinoyl hydrazone]
reduction in the number of bacilli [1]: further enhancement in the reduction | intracellular bacterial burden [1]: significant reduction

CO[C@H]1/C=C/O[C@@]2(C)Oc3c(C)c(O)c4c(O)c(c(/C=N/N5CCN(C)CC5)c(O)c4c3C2=O)NC(=O)/C(C)=C\C=C\[C@H](C)[C@H](O)[C@@H](C)[C@@H](O)[C@@H](C)[C@H](OC(C)=O)[C@@H]1C [Rifampicin, reference compound]
MIC ([3]; Mycobacterium tuberculosis, 504 h, pH 6): 0.04 µM (≈ 0.0329 µg/mL) | MIC ([3]; Mycobacterium tuberculosis, 504 h): 0.04 µM (≈ 0.0329 µg/mL)

C=Cc1c(C)c2cc3[nH]c(cc4nc(cc5nc(cc1[nH]2)C(C)=C5CCC(=O)[O-])C(CCC(=O)[O-])=C4C)c(C)c3C=C.[Cl-].[Cl-].[Sn+4] [SnPPIX, tin (IV) protoporphyrin IX dichloride]
effect on heme degradation by MhuD (M. tuberculosis MhuD; 2 μM SnPPIX, 5 μM MhuD-heme, 1 hour): does not appear to have an effect | SnPPIX degradation by MhuD (M. tuberculosis MhuD; monitored for 24 hours): no SnPPIX degradation even after 24 hours | inhibition of bacterial growth ([2]; 125 μM, complete (iron-containing) GAST medium): No inhibition of bacterial growth was observed | effect of hemin addition on toxicity in iron-free medium ([2]; 125 μM, iron-free medium plus 10 μM hemin): reversed this effect | inhibition of bacterial growth ([2]; 125 μM, iron-free medium): toxicity was observed | MIC99 ([2]; GAST + 10 μM Hemin): >125 µM | MIC99 ([2]; GAST medium): 125 µM | MIC99 ([2]; GASTFe medium): >125 µM | side effects [4]: minimum side effects | effect on bacterial load by organ ([5]; C57BL/6, lungs vs mediastinal lymph nodes or spleens): more prominent in the lungs | enhancement of RHZ efficacy ([5]; SnPPIX initiated 6 weeks after initiation of RHZ therapy): failed to enhance RHZ efficacy | bacterial loads ([5]; TCR-α−/− mice, treatment from 4 wpi, euthanized two weeks after initiation): indistinguishable from those of untreated | mycobacterial load ([5]; mouse, in vivo): highly significant reduction | protection / mortality kinetics ([5]; mouse, in vivo): failed to protect | pulmonary bacterial load ([5]; mouse, in vivo): not at 3 wpi; also recorded: no difference in bacterial loads | reduction in pulmonary bacterial loads below untreated infected mice ([5]; mouse, in vivo): ~1 log | bacterial loads in lungs and mediastinal lymph nodes vs non-treated mice ([5]; mouse, in vivo, ip): diminished bacterial loads | pulmonary bacterial load ([5]; mouse, in vivo, ip, 5 mg/kg): highly significant reduction | MIC ([3]; pH 6): >125 µM | inhibition of bacterial growth ([3]; pH 7): no inhibition of bacterial growth was observed | MIC [3]: >125 µM | heme oxygenase inhibitory capacity (heme oxygenase): higher heme oxygenase inhibitory capacity compared with ZnPPIX | heme-degrading activity of HO-1 [6]: blocked | cellular bacterial load ([1]; added alone): reduced cellular bacterial load

C=CC1=C(C)c2cc3[n-]c(cc4[n-]c(cc5nc(cc1n2)C(C)=C5C=C)c(C)c4CCC(=O)O)c(CCC(=O)O)c3C.[Zn+2] [ZnPPIX, zinc (II) protoporphyrin IX]
solubility [7]: less soluble than SnPPIX
